Each structure is given as a SMILES string.

In data set [1] the target is mu opioid receptor (UniProt P35372). The data set is described as follows: Mu-opioid receptor agonist activity. It is filed as cell-based. How it is done:
The ability of agonists to cause recruitment of beta-arrestin to the mu opioid receptor was measured using DiscoveRx PathHunter technology. A pro-linked tagged mu-opioid receptor and an EA-tagged beta-arrestin were expressed in U2OS cells and beta-arrestin recruitment measured following the methodology in McGuinness et al., 2009 (J Biomol Screen 14:49-58, Characterizing cannabinoid CB2 receptor ligands using DiscoverRx PathHunter beta-arrestin assay—McGuinness D., Malikzay A., Visconti R., Lin K., Bayne M., Monsma F., Lunn C A.)
The ability of mu opioid receptor agonists to inhibit forskolin stimulated cAMP production was measured in CHO cells recombinantly expressing the mu opioid receptor, using alphascreen technology as described in Nickolls et al., 2005, with the additional inclusion of 50 uM forskolin in the assay buffer. (J Pharmacol Exp Ther 313; 1281-88, Functional selectivity of melanocortin 4 receptor peptide and non-peptide agonists: Evidence for ligand specific conformational states. Nickolls S A., Fleck B., Hoare S., Maki R.)
Functional activity at the mu-opioid receptors was determined using the electrically stimulated guinea pig isolated myenteric plexus preparation following the methodology of Hughes, J.; Kosterlitz, H. W. and Leslie, F. M. Br. J. Pharmacol. 1975, 53, 371.

Data set [2] can be described thus: Dofetilide binding. Particulars: probe dofetilide.
Data set [3] is described as follows: Human liver microsomal stability assay (HLM). Conditions: pooled liver microsomes, pH 7.4, 1 μM substrate, 37° C. It is filed as in vitro ADME. The text has this: In vitro measurement of substrate metabolism can be determined using the microsomal cytochrome P450 mono-oxygenase system. This is a useful application in ranking clearance of a number of compounds by Phase I (including cytochrome P450) metabolism prior to in vivo assessment Measurement of intrinsic clearance using these methods also allows a comparison of species difference to be made to assist with translation of pharmacokinetic parameters from preclinical to clinical study.
Human and rat Liver microsomal assays were performed using pooled microsomes from the Pfizer Global Supply (BD Gentest™). Chemical reagents were purchased from commercial sources (Sigma-Aldrich) and drug entities synthesised at Pfizer Global Research. Incubation mixtures contained 50 mM phosphate buffer pH 7.4, 5 mM MgCl2, 5 mM isocitric acid and 1 unit/ml isocitric dehydrogenase. The microsomes were defrosted at room temperature and sufficient volumes added to give a final concentration of 0.5 nmol cytochrome P450/ml. Following the addition of 1 μM of substrate, the incubation was pre-incubated at 37° C. for 5 minutes. The reaction was then initiated by the addition of 1 mM NADP and incubation aliquots are taken over a 1 h time course. The reaction was subsequently stopped by addition of acetonitrile cooled on ice. […]
The intrinsic clearance in rat or human liver microsomes is calculated from: […]

Data set [4] relates to MDR. The data set can be described thus: MDR Papp permeability. The format is in vitro ADME. Particulars: not told.
Data set [5] can be described thus: Lipophilicity (LogD), shake-flask octanol/buffer pH 7.4. The format is physicochemical. Particulars: octanol / 0.1M phosphate buffer pH 7.4. The text has this:
LogD octanol (pH 7.4) is a measure of lipophilicity that accounts for both hydrophobic and hydrogen-bonding interactions of a given substrate. This assay is based on shake-flask methodology, performed in a fully automated manner in a 0.1M phosphate buffer pH7.4-octanol system.
After addition of the test substance in DMSO stock solution to the mixture and vigorous agitation followed by separation of the octanol and buffer layers by centrifugation, duplicate samples are removed from each layer and diluted prior to analysis by LC-MS/MS. Peak area is corrected for dilutions and the following equation used to calculate the logD (pH 7.4): […]
The duplicate logD values must be with 0.4 log units of each other and the positive controls must be within 0.2 log units of the known logD value.

Broadly, the IC50 is the concentration at which inhibition is half-maximal. A high value points to weaker potency in that assay. The microsomal CLint is a measure of how fast metabolising enzymes remove a compound, apart from limits set by blood flow. Read a low microsomal CLint as greater metabolic stability. The term Papp denotes the rate of passage across a membrane or cell layer, normalised by area and donor concentration. A word on the logD: it is the decadic logarithm of the distribution of all forms, ionised or not, between an organic phase and buffer at a given pH. The low end stands for a more hydrophilic compound, the high end for a more lipophilic compound. Turning to `Cc1cc(O)cc(C)c1C[C@H](N)C(=O)N[C@H](C)C(=O)NC[C@@H](N)Cc1ccccc1` [Example 1, 2,6-Dimethyl-L-tyrosyl-N-[(2S)-2-amino-3-phenylpropyl]-D-alaninamide], the results for the IC50 in data set [1] and in data set [2] were 9.8 nM and more than 22000 nM, respectively. For the same compound, the microsomal CLint at 1 μM in data set [3] is 8.4 µL/min/mg. This compound also yielded a Papp in data set [4] of 0.7 ×10⁻⁶ cm/s. The same compound returned a pH-dependent lipophilicity (logD) in data set [5] of 0.05.

Regarding `Cc1cc(O)cc(C)c1C[C@H](N)C(=O)N[C@H](C)C(=O)NC[C@H](N)Cc1ccccc1` [Example 2, 2,6-Dimethyl-L-tyrosyl-N-[(2R)-2-amino-3-phenylpropyl]-D-alaninamide], the IC50 in data set [1] is 6 nM; in data set [2], more than 22000 nM. The compound further displayed an intrinsic clearance (microsomal CLint) at 1 μM in data set [3] of less than 8 µL/min/mg. Moreover, the Papp in data set [4] was 0.6 ×10⁻⁶ cm/s. For the same compound, the logD in data set [5] is -0.2.

Source of the values: patent publication US8957025B2, “Enkephalin analogues” (Pfizer Inc., priority 2011, dated 2015).
